Reference: the NIST ThermoML archive (doi:10.1016/j.jct.2018.07.012)

Experiment: mn = molality of the nth substance listed, in mol/kg
Settings: m2 = 0; for surface tension liquid-gas: Maximal bubble pressure

O [water] + CC(=O)[O-].CCCn1cc[n+](C)c1
Settings	surface tension liquid-gas [mN/m]
288.15 K	73.5
293.15 K	72.8
298.15 K	72
303.15 K	71.2
308.15 K	70.4
313.15 K	69.6
318.15 K	68.7

Settings	mass density [kg/m3]
308.15 K, 100 kPa, Liquid, Vibrating tube method	994.06
